Measured values as given in PubChem BioAssay (NCI).
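Results reflect a 48-hour exposure of cells in 96-well plates to compound at five concentrations. GI50 marks 50% less growth. Definition used: TGI = concentration required for complete inhibition of growth.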

Experiments:
Assay in all cases: growth of human tumour cells (NCI), 48 h
[1] = system: SF-539 CNS
[2] = system: HCT-15 colon
[3] = system: RXF 393 renal
[4] = system: HOP-62 NSCLC
[5] = system: SK-OV-3 ovarian
[6] = system: HCC-2998 colon
[7] = system: A498 renal
[8] = system: TK-10 renal
[9] = system: CCRF-CEM leukemia
[10] = system: UO-31 renal

SMILES | GI50 [1] [µM] | TGI [1] [µM] | GI50 [2] [µM] | TGI [2] [µM] | GI50 [3] [µM] | TGI [3] [µM] | GI50 [4] [µM] | TGI [4] [µM] | GI50 [5] [µM] | TGI [5] [µM] | GI50 [6] [µM] | TGI [6] [µM] | GI50 [7] [µM] | TGI [7] [µM] | GI50 [8] [µM] | TGI [8] [µM] | GI50 [9] [µM] | TGI [9] [µM] | GI50 [10] [µM] | TGI [10] [µM]
COc1ccc(/C=C2\CN(Cc3cn(CCCNc4ccnc5cc(Cl)ccc45)nn3)C/C(=C\c3ccc(OC)c(OC)c3)C2=O)cc1OC | 1.99 | 4.76 | 2.03 | 5.02 | 1.56 | 3.01 | 2.42 | 4.54 | 2.45 | 11.1 | 1.41 | 2.9 | 1.17 | 2.58 | 2.95 | 7.92 | 0.571 | 8.65 | 1.53 | 2.88
CCCc1cc2cc(-n3nc(C)c4c3CC(C)(C)CC4=O)cc(NC3CCC(O)CC3)c2c(=O)[nH]1 (stereo not given) | 0.782 | > 100 | 0.167 | > 100 | 0.113 | 2.92 | 0.129 | > 100 | 0.0892 | > 46.6 | 0.144 | > 100 | 0.437 | > 100 | 0.0964 | > 100 | 0.278 | > 100 | 0.146 | > 100
O=C(Nc1nccs1)c1cc2c(cc1Cl)Sc1nccn1S2(=O)=O | 19.4 | 37.5 | 12.2 | 33.9 | 18.9 | 39.7 | 14.8 | 30.2 | 24.5 | 63.9 | 15.9 | 29.4 | 19.2 | 34.8 | 18.9 | 34.4 | 5.05 | 24.8 | 4.41 | 14.7
Cc1cccc2c(N=Nc3ccc(S(N)(=O)=O)cc3)c(O)[nH]c12 | > 25 | > 25 | > 25 | > 25 | > 25 | > 25 | > 25 | > 25 | > 25 | > 25 | > 25 | > 25 | > 25 | > 25 | > 25 | > 25 | > 25 | > 25 | > 25 | > 25
C/C=C/C=N/N(C(=O)c1cc([N+](=O)[O-])cc([N+](=O)[O-])c1)C1=NC(c2ccccc2)C(c2ccccc2)=NN1 (stereo not given) | – | > 100 | – | > 100 | – | > 100 | – | > 100 | – | > 100 | – | > 100 | – | > 100 | – | > 100 | – | > 100 | – | > 100
Nc1ncnc(NC2C=C(CO)C(O)C2O)c1[N+](=O)[O-] (stereo not given) | – | > 100 | – | > 100 | – | > 100 | – | > 100 | – | > 100 | – | > 100 | – | > 100 | – | > 100 | – | > 100 | – | > 100
COC(=O)C(=O)C(C(=O)C(=O)Nc1ccc(Cl)cc1C)c1nc2ccc(C(=O)c3ccccc3)cc2[nH]c1=O (stereo not given) | – | > 100 | – | > 100 | – | > 100 | – | > 100 | – | > 100 | – | > 100 | – | > 100 | – | > 100 | – | > 100 | – | > 100
